The values that follow come from patent US10736859B2, “Eutectic formulations of cyclobenzaprine hydrochloride and amitriptyline hydrochloride” (Tonix Pharma Holdings Limited, priority 2013, dated 2020).

What all share (assay type): physicochemical
Series [1] in a line: DSC compatibility of Cyclobenzaprine HCl (API) with excipients, milled mixtures (Example 1). To be noted: for Excipient reactions with API, Mixture 1:1: Cyclobenzaprine HCl + excipient 1:1, ground in agate mortar; for Excipient reactions with API, Mixture in formulation ratio: Cyclobenzaprine HCl + excipient in formulation ratio. The procedure:
Thermal analytical techniques were used to assess the compatibility of a drug product (tablet) containing Cyclobenzaprine HCl (API). The compatibility assessment was carried out between the API and a number of possible excipients in a 1:1 ratio. Based on the thermal events recorded for each component and for the mixtures, the analyses were carried out by investigating the peaks recorded by differential scanning calorimetry (DSC) in mixture between API and the excipients. Differences in thermal profiles between the single compound and the related mixture obtained after milling the products in an agate mortar were evaluated. Stability and compatibility also were also assessed on the final drug product after stress conditions at 40° C. and 50° C. for one month.
A “formulation ratio” mixture was made with the following composition: 2.40 mg Cyclobenzaprine HCl, 31.55 mg Mannitol and Maize starch, 2.00 Crospovidone, 0.50 mg colloidal silica, 0.050 mg Sodium Stearyl Fumarate, and 1.05 Potassium hydrogen phosphate.
Aliquots of API and each excipient were weighed in a ratio of 1:1 (unless specified otherwise) and ground in an agate mortar. The homogeneous mixtures then were analyzed.
The DSC heating curves were obtained with a TA 821 DSC Mettler instrument under the following conditions: • Heating rate: 10° C./min • Ambient: Nitrogen 30 mL/min • Sample holder: normal open aluminum pan • Temperature range: from 25° C. to 250° C. • Instrument calibration: Indium sample purity 99.999%

Series [2] is described as follows: DSC compatibility of Amitriptyline HCl with excipients, 1:1 milled mixtures (Example 4). To be noted: Amitriptyline HCl + excipient 1:1, milled in agate mortar, fumarate. The procedure:
Thermal analytical techniques were used to assess the compatibility of the drug product amitriptyline HCl. The compatibility assessment was carried out between the API and the excipients in a 1:1 ratio. On the basis of thermal events recorded for each component and for the mixtures, the analyses were carried out by investigating the peaks recorded by DSC in mixtures between API and the excipients. Differences in thermal profiles between the single compound and the related mixtures were obtained after milling the products in an agate mortar.
DSC was performed substantially as described in Examples 1 and 2. The following raw materials were used: • Amitriptyline HCl • Sodium stearyl fumarate • Stearic acid • Glycerol dibehenate • Magnesium stearate • Pearlitol flash • Pearlitol 200 SO/Mannitol • Unipure DW/Com starch pregelatinized • Crospovidone-Kollidon CL • Silicon Colloidal/Aerosil 200 • Sodium phosphate dibasic • Sodium bicarbonate • Sodium carbonate • Sodium Phosphate dodecahydrate • Sodium Phosphate anhydrous.

Series [3] in a line: DSC, FT-IR/ATR and XRPD compatibility of Cyclobenzaprine HCl with additional excipients, mixed (A) and milled (B) 1:1 mixtures (Example 2). To be noted: DSC; for Interactions between Cyclobenzaprine HCl and excipients, Mixture 1:1 (mixed): mixture A, mechanical mixing only; for Interactions between Cyclobenzaprine HCl and excipients, Mixture 1:1 (milled): mixture B, ground in agate mortar. The procedure: As described above, thermal analytical techniques were further used to assess the compatibility of a drug product (tablet) containing Cyclobenzaprine HCl (API). The compatibility assessment was carried out between the API and additional excipients in a 1:1 ratio. The 1:1 API-excipient mixtures were formed in two different ways: first, by mixing only, and second, by strong milling in an agate mortar. The thermal behavior recorded in the two different mixtures were compared with those of the single components. On the basis of thermal events recorded for each component and for the mixtures, the analyses were carried out by investigating the meanings of the peaks recorded by differential scanning calorimetry (DSC) in mixtures between the API and the excipients. Furthermore, in order to define the nature of the interaction, the Fourier Transformate Infra Red Spectroscopy with Total Attenuated Reflectance (FT-IR/ATR) and X-ray powder diffraction (XRPD) of some samples (API, excipient, and mixed and milled mixtures) was carried out and compared.
Aliquots of API and each excipient were weighed in a ratio of 1:1 and ground in an agate mortar. Then, the homogeneous mixtures were analyzed. These sample mixtures were labeled “B”, while the mechanical-only mixtures were labeled “A.”
The DSC heating curves were obtained by TA 821 DSC Mettler instrument under the following conditions: • Heating rate: 10° C./min • Ambient: Nitrogen 30 mL/min • Sample holder: normal open aluminum pan • Temperature range: from 25° C. to 250° C. • Instrument calibration: Indium sample purity 99.999% Fourier Transformate Infra Red Spectroscopy with Total Attenuated Reflectance (FT-IR/ATR)
The FT-IR spectra were collected with a Perkin Elmer spectrum Two instrument with air as background and 4 cm^−1 resolution.
X-ray powder diffraction (XRPD) tests were performed with the ULTIMA IV instrument (Rigaku), laying the sample on a static sample holder. The X-ray focusing slit has a variable width, interlocked with the q value. The X-ray tube has a Copper target, with a current intensity of 40 mA and a voltage of 40 kV. Radiation was generated by the Cockcroft-Walton method, and was constituted by Kα1 (1.540562 Å) and Kα2 (1.544398 Å). The analytical conditions were: • Fixed Time; sampling width 0.02 deg, scanning rate 1.3 s/step, 2 q range 3.35 deg and sample holder; amorphous glass equiangular 9200/2G, 0.2 mm deep. The sample was pressed with a glass plate.
On the technique in general: Differential scanning calorimetry records heat flow against a reference as temperature is scanned.

The nature of series [4]: XRPD of binary Cyclobenzaprine HCl/mannitol mixtures (Example 3). As to conditions: Cyclobenzaprine HCl/mannitol mixtures 30, 50, 65, 75 and 90% API, no thermal treatment. The procedure:
In order to confirm the eutectic formation and to characterize its physical properties, several binary mixtures at different ratios of API-excipient were prepared and analyzed by DSC and by X-ray powder diffraction (XRPD). The mixtures were obtained by gently milling in agate mortar of micronized Cyclobenzaprine HCl and mannitol, in order to obtain homogeneous distribution of the particles. For each DSC heating curve, the onset temperature and the enthalpy were evaluated both for the eutectic contribute and for the excess of component. The recorded values were plotted and a phase diagram between the two components was obtained with a characteristic profile of phase diagrams of eutectic mixtures.
Mixtures also were investigated by XRPD and compared with the patterns of pure components. […] The XRPD patterns obtained in the mixtures, compared with pure components, were plotted in order to confirm the linearity of the peak intensities (cpf) of mannitol and Cyclobenzaprine HCl, and a proportional peak height at characteristic 2 theta angles.
X-ray powder diffraction (XRPD) tests were performed with a ULTIMA IV (Rigaku) instrument, laying the sample on a static sample holder. […] The radiation generated by the Cockcroft-Walton method is constituted by Kα1 (1.540562 Å) and Kα2 (1.544398 Å). […]

The mark [5] stands for this setting: listed as Sodium Stearyl fumarate, fumarate.

Take `O=P([O-])([O-])O.[K+].[K+]` [Potassium phosphate dibasic, dipotassium hydrogen phosphate]: the entries for the “Excipient reactions with API, Mixture 1:1” value in series [1] and in series [1] (listed as Potassium phosphate bibasic) were “Acid - base interaction” and “chemical interaction (acid-base)”, respectively. Besides, the “Excipient reactions with API, Mixture in formulation ratio” value is given as “Low chemical” in series [1] and “small interaction” in series [1] (listed as K2HPO4).

Consider `CCCCCCCCCCCCCCCCCCOC(=O)/C=C/C(=O)[O-].[Na+]` [Sodium stearyl fumarate], for which the “Excipient reactions with API, Mixture 1:1” value in series [1] (fumarate) is listed as “Physical interaction”; in series [1] (setting [5]), “physical interaction”. The entries for the “Excipient reactions with API, Mixture in formulation ratio” value in series [1] (fumarate) and in series [1] (setting [5]) were “No interaction” and “small physical interaction”, respectively. In addition, the entries for the “Interactions between API and excipients, Mixture in formulation (1:1 ratio)” value in series [2] and in series [2] (listed as Sodium Stearyl fumarate) were “Physical interaction” and “physical interaction”, respectively.

Regarding `OC[C@@H](O)[C@@H](O)[C@H](O)[C@H](O)CO` [Mannitol], the “Interactions between Cyclobenzaprine HCl and excipients, Mixture 1:1 (mixed)” value in series [3] is recorded as “Eutectic”; in series [3] (listed as mannitol), “physical complex interaction peak (eutectic)”. Also, the “Interactions between Cyclobenzaprine HCl and excipients, Mixture 1:1 (milled)” value is on record as “Eutectic” in series [3] and “physical complex interaction peak (eutectic)” in series [3] (listed as mannitol). In addition, the “Adduct formation by XRPD” value in series [4] is listed as “no adduct formation, only a physical eutectic formation”.
